What was measured:
Details in all cases: 72 h
U2OS [1] = assay: drug sensitivity score (DSS) for viability; higher = more toxic; extreme values may be limits of the assay
Caco-2 [2] = assay: as above
HepG2 [3] = assay: as above
Calu-3 [4] = assay: as above
Vero E6 [5] = assay: as above
U2OS [6] = assay: relative viability EC50 (midpoint between 100% and the lowest measured viability); higher = less toxic
Caco-2 [7] = assay: as above
HepG2 [8] = assay: as above
Calu-3 [9] = assay: as above
Vero E6 [10] = assay: as above
U2OS [11] = assay: cell viability relative to DMSO; higher = less toxic
Caco-2 [12] = assay: as above
HepG2 [13] = assay: as above
Calu-3 [14] = assay: as above
Vero E6 [15] = assay: as above

SMILES	drug sensitivity score (U2OS [1])	drug sensitivity score (Caco-2 [2])	drug sensitivity score (HepG2 [3])	drug sensitivity score (Calu-3 [4])	drug sensitivity score (Vero E6 [5])	relative viability EC50 (U2OS [6])	relative viability EC50 (Caco-2 [7])	relative viability EC50 (HepG2 [8])	relative viability EC50 (Calu-3 [9])	relative viability EC50 (Vero E6 [10])	cell viability (U2OS [11]; 1 nM)	cell viability (U2OS [11]; 10 nM)	cell viability (U2OS [11]; 100 nM)	cell viability (U2OS [11]; 1000 nM)	cell viability (U2OS [11]; 10000 nM)	cell viability (Caco-2 [12]; 1 nM)	cell viability (Caco-2 [12]; 10 nM)	cell viability (Caco-2 [12]; 100 nM)	cell viability (Caco-2 [12]; 1000 nM)	cell viability (Caco-2 [12]; 10000 nM)	cell viability (HepG2 [13]; 1 nM)	cell viability (HepG2 [13]; 10 nM)	cell viability (HepG2 [13]; 100 nM)	cell viability (HepG2 [13]; 1000 nM)	cell viability (HepG2 [13]; 10000 nM)	cell viability (Calu-3 [14]; 1 nM)	cell viability (Calu-3 [14]; 10 nM)	cell viability (Calu-3 [14]; 100 nM)	cell viability (Calu-3 [14]; 1000 nM)	cell viability (Calu-3 [14]; 10000 nM)	cell viability (Vero E6 [15]; 1 nM)	cell viability (Vero E6 [15]; 10 nM)	cell viability (Vero E6 [15]; 100 nM)	cell viability (Vero E6 [15]; 1000 nM)	cell viability (Vero E6 [15]; 10000 nM)
C=CCc1ccc(O)c(-c2ccc(O)c(CC=C)c2)c1 [honokiol]	0	0	0.2	0	0	> 10 µM	> 10 µM	> 10 µM	> 10 µM	> 10 µM	94.4%	95.1%	99.3%	99.4%	88.9%	93.8%	94.3%	102%	90.1%	90.9%	108%	109%	109%	93.2%	88.4%	104%	111%	94.4%	96.6%	97%	95.7%	98.9%	97.7%	95.4%	107%
CCN(CCO)CCCC(C)Nc1ccnc2cc(Cl)ccc12 (stereo not given) [hydroxychloroquine]	0	0.1	0	0	0	> 10 µM	> 10 µM	> 10 µM	> 10 µM	> 10 µM	97.1%	98.1%	93.4%	96.8%	89.4%	103%	116%	100%	102%	85.4%	101%	95.9%	96.8%	94.6%	89.6%	94.1%	105%	86.8%	109%	95.9%	101%	95.4%	108%	93.9%	96.8%
O=C1NC(c2cccc([N+](=O)[O-])c2)=CCN1c1ccccc1O [icilin]	0	0	0	0	0	> 10 µM	> 10 µM	> 10 µM	> 10 µM	> 10 µM	95.5%	103%	98.3%	103%	104%	93.4%	102%	97.6%	99.2%	100%	94.3%	93.4%	103%	98%	101%	97.4%	94.1%	93.7%	108%	108%	91.9%	94.3%	94%	94.9%	106%
Nc1c2c(nc3c1CCC3)CCCC2 [ipidacrine]	0	0	0	0	0	> 10 µM	> 10 µM	> 10 µM	> 10 µM	> 10 µM	96.8%	93.4%	103%	94.8%	99.4%	84.5%	96.4%	96.3%	91.8%	106%	101%	99.9%	104%	94.6%	109%	99.2%	99.9%	88.6%	90.9%	100%	96.5%	96.4%	95.8%	94.7%	108%
CC[C@H](C)[C@H](N)C(=O)O [isoleucine]	0	0	0	0	0	> 10 µM	> 10 µM	> 10 µM	> 10 µM	> 10 µM	101%	96.8%	96.3%	107%	106%	88.4%	100%	99.3%	94.5%	108%	99.5%	95.6%	104%	90.8%	97.4%	101%	89.1%	91.1%	99.9%	103%	92.1%	97.3%	96.4%	95.4%	106%
CCCCCCCCCCCCCCCC(=O)OC(C)C [isopropyl-palmitate]	0	0	0	0	0	> 10 µM	> 10 µM	> 10 µM	> 10 µM	> 10 µM	102%	95.9%	97.5%	93.2%	97.7%	101%	102%	109%	90.8%	90.4%	92.2%	102%	99%	94.8%	95.8%	106%	96.6%	94.3%	93.8%	101%	96%	98.8%	99%	98.8%	97.2%
CCN(CC)CCNC(=O)COc1ccc(OC)cc1 [mefexamide]	0	0.1	0	0	0	> 10 µM	> 10 µM	> 10 µM	> 10 µM	> 10 µM	97.9%	99.3%	104%	98%	102%	93%	98.3%	81.7%	81.9%	102%	114%	73.9%	92.7%	114%	119%	108%	106%	109%	106%	98.5%	95.1%	106%	95.4%	96.8%	108%
